{"source": "paper PMC6149922", "about": "“2-Substituted Aniline as a Simple Scaffold for LuxR-Regulated QS Modulation” (Molecules : A Journal of Synthetic Chemistry and Natural …, 2017)", "data": [{"target": "T1, LuxR (Aliivibrio fischeri, UniProt P12746)", "T1 sequence (P12746 1-250)": "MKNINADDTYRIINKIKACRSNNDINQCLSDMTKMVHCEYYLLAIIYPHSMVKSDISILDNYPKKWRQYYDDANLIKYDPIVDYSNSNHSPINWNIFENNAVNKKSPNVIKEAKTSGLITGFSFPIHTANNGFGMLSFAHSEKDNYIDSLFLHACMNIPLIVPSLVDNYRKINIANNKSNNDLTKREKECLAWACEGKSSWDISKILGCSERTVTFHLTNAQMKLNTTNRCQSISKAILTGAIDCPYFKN", "experiment": "antagonism of […] 3-oxo-C6-HSL-induced bioluminescence, recombinant E. coli NM522 pSB401 LuxR biosensor", "assay_type": "cell-based", "units": {"IC50": "µM"}, "values": [{"smiles": "CCCC(=O)Nc1ccccc1[N+](=O)[O-]", "note": "[compound 1, N-(2-nitrophenyl)butanamide]", "IC50": 58}, {"smiles": "CCCCCC(=O)Nc1ccccc1[N+](=O)[O-]", "note": "[compound 2, N-(2-nitrophenyl)hexanamide]", "IC50": 94}, {"smiles": "CCCCCC(=O)Nc1ccccc1", "note": "[compound 12, N-Phenylhexanamide]", "IC50": 79}]}]}
